The nature of series [1]: Particle diameter measurement of milled product (HELOS&RODOS dry powder particle size analyzer). Type of series: physicochemical. Conditions: evaluated by using FIG. 3. How it is done:
The particle diameter of the milled olmesartan medoxomil obtained in Example (1) was measured under the following conditions. Apparatus: HELOS&RODOS dry powder particle size analyzer Lens: R3 Dispersive pressure: 1.5 bar Trigger condition: 2s-1000ms-k15-0.5% Feeder: VIBRI (feeding: 70%)

Series [2] in a line: Measurement of dissolution ratio of pulverized olmesartan medoxomil (JP Dissolution Test Method 2, Paddle Method). Type of series: physicochemical. The settings on record: calculated from regression equation in FIG. 1, 30 minutes, JP-2, 200 paddle rpm. How it is done: According to the Method 2 of the Dissolution Test (Paddle Method) described in the 14th Revised Edition of the Japanese Pharmacopoeia, at 200 paddle revolutions per-minute using 900 mL of Japanese Pharmacopoeia Solution 2 (JP-2) for the test solution, 20 mg of milled olmesartan medoxomil prepared per 1 Bessel was added. The test solution was sampled at 30 minutes after the start of the testing, the sampled test solution was filtered through a membrane filter having a pore diameter of 0.45 μm, and the dissolution ratio of olmesartan medoximil was measured by spectrophotometer. Calculation of the dissolution ratio was conducted based on “absorbance of filtrate at 257 nm-absorbance of filtrate at 338 nm”.

Bounds are passed on as bounds.

Take `CCCc1nc(C(C)(C)O)c(C(=O)OCc2oc(=O)oc2C)n1Cc1ccc(-c2ccccc2-c2nnn[nH]2)cc1` [olmesartan medoxomil, (5-methyl-2-oxo-1,3-dioxolen-4-yl)methyl 4-(1-hydroxy-1-methylethyl)-2-propyl-1-[2′-(1H-tetrazol-5-yl)biphenyl-4-ylmethyl]imidazole-5-carboxylate]: the “particle diameter at 99% cumulative volume” value in series [1] (required for a medicament which elutes 60% or more) was at most 156 μm; in series [1] (required for a medicament which elutes 65% or more) it was at most 137 μm; in series [1] (required for a medicament which elutes 70% or more), at most 119 μm. In addition, the “dissolution ratio of the drug substance” value was 42.93% in series [2] (desired dissolution ratio of the medicament (20 mg tablet) set to 60%), 50.56% in series [2] (desired dissolution ratio of the medicament (20 mg tablet) set to 65%) and 58.18% in series [2] (desired dissolution ratio of the medicament (20 mg tablet) set to 70%).

(Values after US20100062070A1, “Pulverzed crystals of olmesartan medoxomil” (DAIICHI SANKYO COMPANY, LIMITED, priority 2007, published 2010).)
